From US20230016424A1, “HYBRID AMIDE DERIVATIVES OF AMPHOTERICIN B” (The Board of Trustees of the University of Illinois, priority 2019, published 2023)

These compounds were tested on C. albicans SN250, C. albicans, C. krusei, C. glabrata, C. tropicalis, A. fumigatus 91, 1163, 1100 (assay: Average MIC over the tested strains). Conditions: Table 7, C16 amide AmB variants.
Assay type: cell-based

Structure (SMILES) | MIC (Average Minimum Inhibition Concentration) [µM]
CC1C=CC=CC=CC=CC=CC=CC=CC(OC2OC(C)C(O)C(N)C2O)CC2OC(O)(CC(O)CC(O)C(O)CCC(O)CC(O)CC(=O)OC(C)C(C)C1O)CC(O)C2C(=O)NC1C(CO)OC(n2cnc3c(N)ncnc32)C1O (mixture of isomers) [EA] | 0.422
CC1C=CC=CC=CC=CC=CC=CC=CC(OC2OC(C)C(O)C(N)C2O)CC2OC(O)(CC(O)CC(O)C(O)CCC(O)CC(O)CC(=O)OC(C)C(C)C1O)CC(O)C2C(=O)NC1CCCC1O (mixture of isomers) [EV] | 0.500
CC1C=CC=CC=CC=CC=CC=CC=CC(OC2OC(C)C(O)C(N)C2O)CC2OC(O)(CC(O)CC(O)C(O)CCC(O)CC(O)CC(=O)OC(C)C(C)C1O)CC(O)C2C(=O)NC1C(O)OC(CO)C(O)C1O (mixture of isomers) [FK] | 0.211
COC1OC(CO)C(O)C(NC(=O)C2C(O)CC3(O)CC(O)CC(O)C(O)CCC(O)CC(O)CC(=O)OC(C)C(C)C(O)C(C)C=CC=CC=CC=CC=CC=CC=CC(OC4OC(C)C(O)C(N)C4O)CC2O3)C1O (mixture of isomers) [FO] | 0.258
CCC(O)CNC(=O)C1C(O)CC2(O)CC(O)CC(O)C(O)CCC(O)CC(O)CC(=O)OC(C)C(C)C(O)C(C)C=CC=CC=CC=CC=CC=CC=CC(OC3OC(C)C(O)C(N)C3O)CC1O2 (mixture of isomers) [FX] | 0.313
CC1C=CC=CC=CC=CC=CC=CC=CC(OC2OC(C)C(O)C(N)C2O)CC2OC(O)(CC(O)CC(O)C(O)CCC(O)CC(O)CC(=O)OC(C)C(C)C1O)CC(O)C2C(=O)NC1C(O)COC(O)C1O (mixture of isomers) [GE] | 0.320
CC1C=CC=CC=CC=CC=CC=CC=CC(OC2OC(C)C(O)C(N)C2O)CC2OC(O)(CC(O)CC(O)C(O)CCC(O)CC(O)CC(=O)OC(C)C(C)C1O)CC(O)C2C(=O)NC1C(O)OC(CO)C(O)C1O (mixture of isomers) [GL] | 0.344
CC1C=CC=CC=CC=CC=CC=CC=CC(OC2OC(C)C(O)C(N)C2O)CC2OC(O)(CC(O)CC(O)C(O)CCC(O)CC(O)CC(=O)OC(C)C(C)C1O)CC(O)C2C(=O)NCCN(C)C (centres unmarked) [DA] | 0.352
CC1C=CC=CC=CC=CC=CC=CC=CC(OC2OC(C)C(O)C(N)C2O)CC2OC(O)(CC(O)CC(O)C(O)CCC(O)CC(O)CC(=O)OC(C)C(C)C1O)CC(O)C2C(=O)NC(CO)CO (centres unmarked) [DD] | 0.375
CC1C=CC=CC=CC=CC=CC=CC=CC(OC2OC(C)C(O)C(N)C2O)CC2OC(O)(CC(O)CC(O)C(O)CCC(O)CC(O)CC(=O)OC(C)C(C)C1O)CC(O)C2C(=O)NCC1OC(n2cnc3c(=O)[nH]c(N)nc32)C(O)C1O (centres unmarked) [DM] | 0.391
CC1C=CC=CC=CC=CC=CC=CC=CC(OC2OC(C)C(O)C(N)C2O)CC2OC(O)(CC(O)CC(O)C(O)CCC(O)CC(O)CC(=O)OC(C)C(C)C1O)CC(O)C2C(=O)NCCn1ncnn1 (centres unmarked) [DN] | 0.391
CC1C=CC=CC=CC=CC=CC=CC=CC(OC2OC(C)C(O)C(N)C2O)CC2OC(O)(CC(O)CC(O)C(O)CCC(O)CC(O)CC(=O)OC(C)C(C)C1O)CC(O)C2C(=O)NCCOCCN (centres unmarked) [DP] | 0.391
COC(=O)C(CCCNC(=N)N)NC(=O)C1C(O)CC2(O)CC(O)CC(O)C(O)CCC(O)CC(O)CC(=O)OC(C)C(C)C(O)C(C)C=CC=CC=CC=CC=CC=CC=CC(OC3OC(C)C(O)C(N)C3O)CC1O2 (centres unmarked) [DQ] | 0.406
CC1C=CC=CC=CC=CC=CC=CC=CC(OC2OC(C)C(O)C(N)C2O)CC2OC(O)(CC(O)CC(O)C(O)CCC(O)CC(O)CC(=O)OC(C)C(C)C1O)CC(O)C2C(=O)NC1CCC(N)CC1 (centres unmarked) [DU] | 0.406
CC1C=CC=CC=CC=CC=CC=CC=CC(OC2OC(C)C(O)C(N)C2O)CC2OC(O)(CC(O)CC(O)C(O)CCC(O)CC(O)CC(=O)OC(C)C(C)C1O)CC(O)C2C(=O)NCCNC(=N)N (centres unmarked) [DV] | 0.406
CC1C=CC=CC=CC=CC=CC=CC=CC(OC2OC(C)C(O)C(N)C2O)CC2OC(O)(CC(O)CC(O)C(O)CCC(O)CC(O)CC(=O)OC(C)C(C)C1O)CC(O)C2C(=O)N(CO)CCO (centres unmarked) [DW] | 0.419
CC1C=CC=CC=CC=CC=CC=CC=CC(OC2OC(C)C(O)C(N)C2O)CC2OC(O)(CC(O)CC(O)C(O)CCC(O)CC(O)CC(=O)OC(C)C(C)C1O)CC(O)C2C(=O)NC1COC1 (centres unmarked) [DX] | 0.422

Structure (SMILES) | MIC (Average Minimum Inhibition Concentration) [µM]
CC1C=CC=CC=CC=CC=CC=CC=CC(OC2OC(C)C(O)C(N)C2O)CC2OC(O)(CC(O)CC(O)C(O)CCC(O)CC(O)CC(=O)OC(C)C(C)C1O)CC(O)C2C(=O)NCC(C)(C)C(N)=O (centres unmarked) [EC] | 0.422
CC1C=CC=CC=CC=CC=CC=CC=CC(OC2OC(C)C(O)C(N)C2O)CC2OC(O)(CC(O)CC(O)C(O)CCC(O)CC(O)CC(=O)OC(C)C(C)C1O)CC(O)C2C(=O)NCCS(C)(=O)=O (centres unmarked) [EE] | 0.422
CC1C=CC=CC=CC=CC=CC=CC=CC(OC2OC(C)C(O)C(N)C2O)CC2OC(O)(CC(O)CC(O)C(O)CCC(O)CC(O)CC(=O)OC(C)C(C)C1O)CC(O)C2C(=O)NCC1OC(O)C(O)C(O)C1O (centres unmarked) [EF] | 0.430
CC1C=CC=CC=CC=CC=CC=CC=CC(OC2OC(C)C(O)C(N)C2O)CC2OC(O)(CC(O)CC(O)C(O)CCC(O)CC(O)CC(=O)OC(C)C(C)C1O)CC(O)C2C(=O)NCB(O)O (centres unmarked) [EG] | 0.430
CC1C=CC=CC=CC=CC=CC=CC=CC(OC2OC(C)C(O)C(N)C2O)CC2OC(O)(CC(O)CC(O)C(O)CCC(O)CC(O)CC(=O)OC(C)C(C)C1O)CC(O)C2C(=O)NC1CC1 (centres unmarked) [EI] | 0.438
CC1C=CC=CC=CC=CC=CC=CC=CC(OC2OC(C)C(O)C(N)C2O)CC2OC(O)(CC(O)CC(O)C(O)CCC(O)CC(O)CC(=O)OC(C)C(C)C1O)CC(O)C2C(=O)NCCC#N (centres unmarked) [EK] | 0.438
C=CCNC(=O)C1C(O)CC2(O)CC(O)CC(O)C(O)CCC(O)CC(O)CC(=O)OC(C)C(C)C(O)C(C)C=CC=CC=CC=CC=CC=CC=CC(OC3OC(C)C(O)C(N)C3O)CC1O2 (centres unmarked) [EL] | 0.453
COCC(C)NC(=O)C1C(O)CC2(O)CC(O)CC(O)C(O)CCC(O)CC(O)CC(=O)OC(C)C(C)C(O)C(C)C=CC=CC=CC=CC=CC=CC=CC(OC3OC(C)C(O)C(N)C3O)CC1O2 (centres unmarked) [EM] | 0.469
CC1C=CC=CC=CC=CC=CC=CC=CC(OC2OC(C)C(O)C(N)C2O)CC2OC(O)(CC(O)CC(O)C(O)CCC(O)CC(O)CC(=O)OC(C)C(C)C1O)CC(O)C2C(=O)NCC(C)(C)F (centres unmarked) [EN] | 0.469
CC1C=CC=CC=CC=CC=CC=CC=CC(OC2OC(C)C(O)C(N)C2O)CC2OC(O)(CC(O)CC(O)C(O)CCC(O)CC(O)CC(=O)OC(C)C(C)C1O)CC(O)C2C(=O)NCCNS(C)(=O)=O (centres unmarked) [EO] | 0.469
CC1C=CC=CC=CC=CC=CC=CC=CC(OC2OC(C)C(O)C(N)C2O)CC2OC(O)(CC(O)CC(O)C(O)CCC(O)CC(O)CC(=O)OC(C)C(C)C1O)CC(O)C2C(=O)NCCCS(N)(=O)=O (centres unmarked) [EP] | 0.484
CC1C=CC=CC=CC=CC=CC=CC=CC(OC2OC(C)C(O)C(N)C2O)CC2OC(O)(CC(O)CC(O)C(O)CCC(O)CC(O)CC(=O)OC(C)C(C)C1O)CC(O)C2C(=O)NCCCNC(N)=O (centres unmarked) [EQ] | 0.484
CC1C=CC=CC=CC=CC=CC=CC=CC(OC2OC(C)C(O)C(N)C2O)CC2OC(O)(CC(O)CC(O)C(O)CCC(O)CC(O)CC(=O)OC(C)C(C)C1O)CC(O)C2C(=O)NCCN1CCOC1=O (centres unmarked) [ER] | 0.484
CC1C=CC=CC=CC=CC=CC=CC=CC(OC2OC(C)C(O)C(N)C2O)CC2OC(O)(CC(O)CC(O)C(O)CCC(O)CC(O)CC(=O)OC(C)C(C)C1O)CC(O)C2C(=O)NC1CNC1=O (centres unmarked) [ES] | 0.484
CC1C=CC=CC=CC=CC=CC=CC=CC(OC2OC(C)C(O)C(N)C2O)CC2OC(O)(CC(O)CC(O)C(O)CCC(O)CC(O)CC(=O)OC(C)C(C)C1O)CC(O)C2C(=O)NC1COCC1O (centres unmarked) [EU] | 0.500
CC1C=CC=CC=CC=CC=CC=CC=CC(OC2OC(C)C(O)C(N)C2O)CC2OC(O)(CC(O)CC(O)C(O)CCC(O)CC(O)CC(=O)OC(C)C(C)C1O)CC(O)C2C(=O)NCCOC(F)F (centres unmarked) [EW] | 0.500
CC1C=CC=CC=CC=CC=CC=CC=CC(OC2OC(C)C(O)C(N)C2O)CC2OC(O)(CC(O)CC(O)C(O)CCC(O)CC(O)CC(=O)OC(C)C(C)C1O)CC(O)C2C(=O)NCCCCO (centres unmarked) [EY] | 0.500

Same assay, conditions: Table 12, C16 amides of C2'epiAmB

Structure (SMILES) | Average MIC [µM]
CC1C=CC=CC=CC=CC=CC=CC=CC(OC2OC(C)C(O)C(N)C2O)CC2OC(O)(CC(O)CC(O)C(O)CCC(O)CC(O)CC(=O)OC(C)C(C)C1O)CC(O)C2C(=O)NC1COCC1O (centres unmarked) [BP] | 1.250
CNC(=O)C1C(O)CC2(O)CC(O)CC(O)C(O)CCC(O)CC(O)CC(=O)OC(C)C(C)C(O)C(C)C=CC=CC=CC=CC=CC=CC=CC(OC3OC(C)C(O)C(N)C3O)CC1O2 (centres unmarked) [BS] | 1.734
CC1C=CC=CC=CC=CC=CC=CC=CC(OC2OC(C)C(O)C(N)C2O)CC2OC(O)(CC(O)CC(O)C(O)CCC(O)CC(O)CC(=O)OC(C)C(C)C1O)CC(O)C2C(=O)NCCN (centres unmarked) [BT] | 1.750
CC1C=CC=CC=CC=CC=CC=CC=CC(OC2OC(C)C(O)C(N)C2O)CC2OC(O)(CC(O)CC(O)C(O)CCC(O)CC(O)CC(=O)OC(C)C(C)C1O)CC(O)C2C(=O)NCCC(N)=O (centres unmarked) [BU] | 2.563
CC1C=CC=CC=CC=CC=CC=CC=CC(OC2OC(C)C(O)C(N)C2O)CC2OC(O)(CC(O)CC(O)C(O)CCC(O)CC(O)CC(=O)OC(C)C(C)C1O)CC(O)C2C(=O)NC1CC1 (centres unmarked) [BV] | 3.063
CC1C=CC=CC=CC=CC=CC=CC=CC(OC2OC(C)C(O)C(N)C2O)CC2OC(O)(CC(O)CC(O)C(O)CCC(O)CC(O)CC(=O)OC(C)C(C)C1O)CC(O)C2C(=O)NC1CCC1 (centres unmarked) [BW] | 5.563
COC(=O)C(Cc1c[nH]cn1)NC(=O)C1C(O)CC2(O)CC(O)CC(O)C(O)CCC(O)CC(O)CC(=O)OC(C)C(C)C(O)C(C)C=CC=CC=CC=CC=CC=CC=CC(OC3OC(C)C(O)C(N)C3O)CC1O2 (centres unmarked) [BX] | 9.073
